Source: patent US20140275201A1, “IDENTIFICATION OF CANCER STEM CELL MARKERS AND USE OF […] TO TREAT CANCER” (BOARD OF REGENTS, THE UNIVERSITY OF TEXAS SYSTEM, priority 2013, published 2014)

Tests used:
HMLER-FOXC2 cells [1] = test: Cell growth in monolayer cultures with sunitinib, HMLER-FOXC2; assay type: cell-based, human; details: sunitinib 10 μM (FIG. 7A), method says 2.5 μM, six days
Description: (§1) FIG. 7: Sunitinib inhibits the growth and metastasis of FOXC2-expressing tumors. FIG. 7A: Quantification of HMLER-Vector and HMLER-FOXC2 cell viability in the presence of sunitinib (10 μM) relative to vehicle (DMSO). N=3; error bars indicate SEM. *P<0.05. FIG. 7B: In vitro quantification of mammospheres formed by 1000 HMLER-FOXC2 and HMLER-Snail cells in the presence of sunitinib (10 μM) or DMSO. N=3; error bars indicate SEM. *P<0.05. FIG. 7C: Tumor volume of HMLER-FOXC2 cells injected into the mammary fat pad of NOD/SCID mice and treated with 40 mg/kg of sunitinib or vehicle (N=9) daily for the indicated number of days. Top line represents Vehicle; bottom line represents Sunitinib. […] FIGS. 7E and F: Thirty days following initiation of sunitinib or vehicle treatment, mice were euthanized and the organs, lung (FIG. 7E) and brain (FIG. 7F), were dissected and analyzed for metastatic tumor burden using bioluminescence imaging. The luminescent signal of tumor cells is represented as the total photon flux detected in each organ from individual mice with the bar indicating the average. ***P<0.001, **P<0.05 compared to the vehicle control group.
To determine the effects of sunitinib on cell growth, 2×10^5 cells were plated in a 6-well tissues culture dish. […] On the sixth day of treatment, viable cells per well was quantified using a Beckman-Coulter Vi-Cell Viability Analyzer.

HMLER-FOXC2 cells [2] = test: Mammosphere assay, HMLER-FOXC2; assay type: cell-based, human; details: HMLER-FOXC2, 1000 cells, sunitinib 10 μM, 7 days
Description: as §1
(§2) Mammosphere cultures were performed as described (Dontu et al., 2003), with the exception that culture medium contained 1% methylcellulose to reduce cell aggregation (Mani et al., 2008). […] Spheres were quantified after 7 days.

HMLER-Snail cells = test: Mammosphere assay, HMLER-Snail; assay type: cell-based, human; details: 1000 cells, sunitinib 10 μM, 7 days
Description: as §1, §2

[3] = test system: HMLE-Snail and SUM159 cells expressing shControl or shFOXC2; test: MTS cell viability assay, cells expressing endogenous FOXC2; assay type: cell-based, human; details: cells expressing endogenous FOXC2 (shControl) versus shFOXC2, 96 hours, increasing concentrations
Description: (§3) FIGS. 12A and B: Quantification of HMLE-Snail (FIG. 12A) and SUM159 (FIG. 12B) cell viability expressing either shControl or shFOXC2, following culture for 96 hours in increasing concentrations of sunitinib. Cell viability was assessed using an MTS assay. Top lines represent shFOXC2; bottom lines represent shControl. FIG. 12C: In vitro quantification of mammospheres formed by cells described above grown in the presence of sunitinib. Data represents the number of mammospheres formed per 1000 cells seeded after 7 days of culture. For each cell type, the left column represents Vehicle and the right column represents Sunitinib. Error bars indicate SEM. *P<0.05.

[4] = test system: HMLE-Snail and SUM159 cells expressing shControl or shFOXC2; test: Mammosphere assay, cells expressing endogenous FOXC2; assay type: cell-based, human; details: cells expressing endogenous FOXC2 (shControl) versus shFOXC2, 1000 cells seeded, 7 days
Description: as §3
Mammosphere cultures were performed as described (Dontu et al., 2003), with the exception that culture medium contained 1% methylcellulose to reduce cell aggregation (Mani et al., 2008). One thousand cells were plated per well into 96-well plates and cultured for 7-10 days, with fresh medium replaced every 3 days. Following incubation, mammospheres were photographed and spheres with a diameter greater than 75 μm were counted. To test the effects of sunitinib, 1000 cells were plated in 96-well low attachment plate in 100 μl mammosphere media. At 24 hours and 96 hours, 100 μl of mammosphere media containing 10 μM sunitinib or vehicle control (DMSO) was added to each well. Spheres were quantified after 7 days.

HMLER-FOXC2 tumors = test: Orthotopic HMLER-FOXC2 xenograft in the mammary fat-pad; assay type: in vivo, NOD/SCID mice
Description: FIG. 7: Sunitinib inhibits the growth and metastasis of FOXC2-expressing tumors. FIG. 7A: Quantification of HMLER-Vector and HMLER-FOXC2 cell viability in the presence of sunitinib (10 μM) relative to vehicle (DMSO). N=3; error bars indicate SEM. *P<0.05. FIG. 7B: In vitro quantification of mammospheres formed by 1000 HMLER-FOXC2 and HMLER-Snail cells in the presence of sunitinib (10 μM) or DMSO. N=3; error bars indicate SEM. *P<0.05. FIG. 7C: Tumor volume of HMLER-FOXC2 cells injected into the mammary fat pad of NOD/SCID mice and treated with 40 mg/kg of sunitinib or vehicle (N=9) daily for the indicated number of days. Top line represents Vehicle; bottom line represents Sunitinib. FIG. 7D: Event-free survival of mice with orthotopic HMLER-FOXC2 xenografts treated daily with sunitinib (40 mg/kg, N=7) or vehicle (N=10). Mice were euthanized once tumors reached 1.5 cm^3. Bottom line represents Vehicle; top line represents Sunitinib. FIGS. 7E and F: Thirty days following initiation of sunitinib or vehicle treatment, mice were euthanized and the organs, lung (FIG. 7E) and brain (FIG. 7F), were dissected and analyzed for metastatic tumor burden using bioluminescence imaging. The luminescent signal of tumor cells is represented as the total photon flux detected in each organ from individual mice with the bar indicating the average. ***P<0.001, **P<0.05 compared to the vehicle control group.
To ascertain the effects of sunitinib on HMLER-FOXC2 tumor growth and animal survival, 1×10^6 firefly luciferase-labeled HMLER-FOXC2 cells were injected into the mammary fat-pad of NOD/SCID mice as described above. After 24 hours, the mice were treated 5 days a week with 40 mg/kg sunitinib or vehicle (n=9) by oral gavage. Animals were sacrificed once the tumors reached 1.5 cm^3 or 30 days following injection and the dissected organs were immediately analyzed for luciferase activity.

For CCN(CC)CCNC(=O)c1c(C)[nH]c(/C=C2\C(=O)Nc3ccc(F)cc32)c1C [sunitinib], the “cell growth (cell viability relative to vehicle DMSO)” value (HMLER-FOXC2 cells [1]) was “specifically inhibit the cell growth”, the “decrease of mammosphere formation compared to vehicle (DMSO) treated cells” value (HMLER-FOXC2 cells [2]) was over 8 fold and the “decrease of mammosphere formation compared to vehicle (DMSO) treated cells” value (HMLER-Snail cells) was over 20 fold. For the same compound, the “sensitivity to sunitinib by MTS assay” value [3] was “increased sensitivity”, the “sensitivity to sunitinib by reduction in mammosphere formation” value [4] was “increased sensitivity” and the “primary tumor growth (tumor volume)” value (HMLER-FOXC2 tumors; 40 mg/kg sunitinib by oral gavage versus vehicle, NOD/SCID mice) was “reduced primary tumor growth”. The “metastatic burden in brain (photon counts, bioluminescence)” value (HMLER-FOXC2 tumors; 40 mg/kg sunitinib oral versus vehicle, thirty days after start of treatment, dissected brain) was “significantly reduced metastatic burden”, the “metastatic burden in lungs (photon counts, bioluminescence)” value (HMLER-FOXC2 tumors; 40 mg/kg sunitinib oral versus vehicle, thirty days after start of treatment, dissected lungs) was “significantly reduced metastatic burden” and the event-free survival (HMLER-FOXC2 tumors; 40 mg/kg sunitinib oral versus vehicle, mice euthanized once tumors reached 1.5 cm^3) was “extended event-free survival”.
